In brackets after ≈: the same amount, converted by molar mass.
How the values were obtained:
[1] = target: Human KLK1 (Homo sapiens (Human), UniProt P06870); assay: Determination of the IC50 for KLK1; format: biochemical; conditions: Human KLK1, 37° C., substrate H-DVal-Leu-Arg-AFC; Table 12
In short: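 Human KLK1 incubated at 37° C with fluorogenic substrate H-DVal-Leu-Arg-AFC and a range of test compound concentrations. Residual activity taken as initial reaction rate from absorbance change at 410 nm; IC50 derived from these rates.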

[2] = physchem; conditions: for solubility in PO4 buffer: pH 7; for solubility: pH 7, aqueous buffer, kinetic from dmso stock
Method: Determination of the Kinetic Solubility in Phosphate Buffer
After shaking for approximately 30 seconds the reduction in light transmission of these samples, at 650 nm, was measured (Molecular Devices Spectromax UV/visible spectrophotometer). A second measurement was taken at approximately 30 seconds later.

[3] = target: Human plasma kallikrein (Homo sapiens (Human), UniProt P03952); assay: Determination of the IC50 for plasma kallikrein; format: biochemical; conditions: fluorogenic substrate H-DPro-Phe-Arg-AFC, 37° C., read-out: IC50 (human PKal)
Chain of Human plasma kallikrein (P03952 391-638): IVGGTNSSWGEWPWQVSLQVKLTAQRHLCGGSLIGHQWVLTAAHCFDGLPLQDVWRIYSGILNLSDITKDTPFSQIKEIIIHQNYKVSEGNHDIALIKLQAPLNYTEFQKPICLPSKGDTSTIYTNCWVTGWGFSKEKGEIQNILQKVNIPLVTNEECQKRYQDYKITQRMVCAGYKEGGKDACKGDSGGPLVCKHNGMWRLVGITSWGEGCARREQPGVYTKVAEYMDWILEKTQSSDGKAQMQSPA
Chain of Human plasma kallikrein (P03952 20-390 partner): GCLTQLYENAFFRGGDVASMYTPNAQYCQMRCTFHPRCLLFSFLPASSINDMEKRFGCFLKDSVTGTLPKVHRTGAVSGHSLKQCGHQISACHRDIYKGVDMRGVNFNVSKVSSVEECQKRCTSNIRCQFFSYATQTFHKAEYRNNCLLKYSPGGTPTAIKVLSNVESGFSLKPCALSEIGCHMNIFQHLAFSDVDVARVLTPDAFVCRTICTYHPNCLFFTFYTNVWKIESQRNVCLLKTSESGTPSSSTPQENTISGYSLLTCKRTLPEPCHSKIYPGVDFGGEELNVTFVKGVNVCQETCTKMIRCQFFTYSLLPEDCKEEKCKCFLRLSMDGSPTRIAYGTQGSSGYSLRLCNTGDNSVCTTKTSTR
In short: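 Human plasma kallikrein incubated at 37° C with fluorogenic substrate H-DPro-Phe-Arg-AFC and varying compound concentrations. Initial reaction rate followed by absorbance change at 410 nm to give residual activity and IC50.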

Chain of Human KLK1 (P06870 25-262): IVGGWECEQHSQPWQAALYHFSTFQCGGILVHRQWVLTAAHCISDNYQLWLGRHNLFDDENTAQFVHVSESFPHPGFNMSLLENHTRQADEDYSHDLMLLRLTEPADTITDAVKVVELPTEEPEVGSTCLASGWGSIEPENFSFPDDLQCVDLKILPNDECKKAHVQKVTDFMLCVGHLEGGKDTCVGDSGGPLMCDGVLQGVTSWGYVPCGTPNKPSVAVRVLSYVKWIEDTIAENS

| IC50 [1] | solubility in PO4 buffer [2] | IC50 [3] | solubility [2] | SMILES |
| --- | --- | --- | --- | --- |
| > 1 µM | > 235 µM | 0.089 µM | – | CCOc1ccc(C[C@@H](NC(=O)CC)C(=O)N[C@@H](Cc2ccccc2)C(=O)NCc2ccc(CN)cc2)cc1 [Example 1, (S)—N-(4-Aminomethyl-benzyl)-2-[(R)-3-(4-ethoxy-phenyl)-2-propionylamino-propionylamino]-3-phenyl-propionamide] |
| > 10 µM | > 235 µM | 0.23 µM | – | NCc1ccc(CNC(=O)[C@H](Cc2ccccc2)NC(=O)[C@@H](CC2CCCCC2)NCC(=O)O)cc1 [Example 4, {(R)-1-[(S)-1-(4-Aminomethyl-benzylcarbamoyl)-2-phenyl-ethylcarbamoyl]-2-cyclohexyl-ethylamino}-acetic acid] |
| 0.16 µM | > 235 µM | 0.46 µM | – | CCOc1ccc(C[C@@H](N)C(=O)N[C@@H](Cc2ccccc2)C(=O)NCc2ccc(CN)cc2)cc1 [Example 5, (R)-2-Amino-N-[(S)-1-(4-aminomethyl-benzylcarbamoyl)-2-phenyl-ethyl]-3-(4-ethoxy-phenyl)-propionamide] |
| > 1 µM | > 235 µM | 1 µM | – | CCOc1ccc(C[C@@H](N)C(=O)N[C@@H](Cc2ccccc2)C(=O)NCc2ccc(CN)c(F)c2)cc1 [Example 6, (R)-2-Amino-N-[(S)-1-(4-aminomethyl-3-fluoro-benzylcarbamoyl)-2-phenyl-ethyl]-3-(4-ethoxy-phenyl)-propionamide] |
| > 1 µM | > 235 µM | 2 µM | – | CN(C)[C@H](CC1CCCCC1)C(=O)N[C@@H](Cc1ccccc1)C(=O)NCc1ccc(CN)cc1 [Example 9, (R)-N-[(S)-1-(4-Aminomethyl-benzylcarbamoyl)-2-phenyl-ethyl]-3-cyclohexyl-2-dimethylamino-propionamide] |
| – | > 235 µM | 0.29 µM | – | CCOc1ccc(C[C@@H](NC(=O)CC)C(=O)N[C@@H](Cc2ccccc2)C(=O)NCc2ccc(CN)cc2Cl)cc1 [Example 12, (S)-N-(4-Aminomethyl-2-chloro-benzyl)-2-[(R)-3-(4-ethoxy-phenyl)-2-propionylamino-propionylamino]-3-phenyl-propionamide] |
| 3.7 µM | > 235 µM | 0.4 µM | – | CCOc1ccc(C[C@@H](N)C(=O)N[C@@H](Cc2ccc(Cl)c(Cl)c2)C(=O)NCc2ccc(CN)cc2)cc1 [Example 14, (R)-2-Amino-N-[(S)-1-(4-aminomethyl-benzylcarbamoyl)-2-(3,4-dichloro-phenyl)-ethyl]-3-(4-ethoxy-phenyl)-propionamide] |
| 2.2 µM | > 235 µM | 0.47 µM | – | CCOc1ccc(C[C@@H](NS(=O)(=O)c2ccccc2)C(=O)N[C@@H](Cc2ccccc2)C(=O)NCc2ccc(CN)cc2)cc1 [Example 15, (R)-N-[(S)-1-(4-Aminomethyl-benzylcarbamoyl)-2-phenyl-ethyl]-2-benzenesulfonylamino-3-(4-ethoxy-phenyl)-propionamide] |
| > 10 µM | > 235 µM | 5.8 µM | – | CCOc1ccc(C[C@@H](NCC(=O)O)C(=O)N[C@@H](Cc2ccccc2)C(=O)NCc2ccc(CN)cc2)cc1 [Example 17, [(R)-1-[(S)-1-(4-Aminomethyl-benzylcarbamoyl)-2-phenyl-ethylcarbamoyl]-2-(4-ethoxy-phenyl)-ethylamino]-acetic acid] |
| 1.6 µM | > 235 µM | 8.8 µM | – | NCc1ccc(CNC(=O)[C@H](Cc2ccc(Cl)c(Cl)c2)NC(=O)[C@H](N)Cc2ccc(C(F)(F)F)cc2)cc1 [Example 18, (R)-2-Amino-N-[(S)-1-(4-aminomethyl-benzylcarbamoyl)-2-(3,4-dichloro-phenyl)-ethyl]-3-(4-trifluoromethyl-phenyl)-propionamide] |
| 3.7 µM | > 235 µM | 0.73 µM | – | NCc1ccc(CNC(=O)[C@H](Cc2ccc(Cl)c(Cl)c2)NC(=O)[C@H](N)CC2CCCCC2)cc1 [Example 20, (R)-2-Amino-N-[(S)-1-(4-aminomethyl-benzylcarbamoyl)-2-(3,4-dichloro-phenyl)-ethyl]-3-cyclohexyl-propionamide] |
| 10 µM | – | 5.1 µM | 12 µM (≈ 6.74 µg/mL) | CCC(=O)N[C@H](CC1CCCCC1)C(=O)N[C@@H](Cc1ccc(Cl)c(Cl)c1)C(=O)NCc1ccc(CN)cc1 [Example 21, (R)-N-[(S)-1-(4-Aminomethyl-benzylcarbamoyl)-2-(3,4-dichloro-phenyl)-ethyl]-3-cyclohexyl-2-propionylamino-propionamide] |
| > 10 µM | > 235 µM | 0.45 µM | – | CCOc1ccc(C[C@@H](NC(=O)CC)C(=O)N[C@@H](Cc2ccccc2)C(=O)N(C)Cc2ccc(CN)cc2)cc1 [Example 24, (S)-N-(4-Aminomethyl-benzyl)-2-[(R)-3-(4-ethoxy-phenyl)-2-propionylamino-propionylamino]-N-methyl-3-phenyl-propionamide] |
| 6.3 µM | > 235 µM | 0.34 µM | – | CCOc1ccc(C[C@@H](N)C(=O)N(C)[C@@H](Cc2ccccc2)C(=O)NCc2ccc(CN)cc2)cc1 [Example 25, (R)-2-Amino-N-[(S)-1-(4-aminomethyl-benzylcarbamoyl)-2-phenyl-ethyl]-3-(4-ethoxy-phenyl)-N-methyl-propionamide] |
| > 10 µM | > 235 µM | 0.081 µM | – | CCOc1ccc(C[C@@H](NC(=O)CC)C(=O)N(C)[C@@H](Cc2ccccc2)C(=O)NCc2ccc(CN)cc2)cc1 [Example 26, (S)-N-(4-Aminomethyl-benzyl)-2-{[(R)-3-(4-ethoxy-phenyl)-2-propionylamino-propionyl]-methyl-amino}-3-phenyl-propionamide] |
| 4 µM | > 235 µM | 1.3 µM | – | CCOc1ccc(C[C@@H](NC)C(=O)N[C@@H](Cc2ccccc2)C(=O)NCc2ccc(CN)cc2)cc1 [Example 27, (R)-N-[(S)-1-(4-Aminomethyl-benzylcarbamoyl)-2-phenyl-ethyl]-3-(4-ethoxy-phenyl)-2-methylamino-propionamide] |
| > 10 µM | > 235 µM | 0.3 µM | – | CN(CC(=O)O)[C@H](CC1CCCCC1)C(=O)N[C@@H](Cc1ccccc1)C(=O)NCc1ccc(CN)cc1 [Example 29, ({(R)-1-[(S)-1-(4-Aminomethyl-benzylcarbamoyl)-2-phenyl-ethylcarbamoyl]-2-cyclohexyl-ethyl}-methyl-amino)-acetic acid] |
| > 10 µM | > 235 µM | 0.58 µM | – | CN(C(=O)[C@@H](CC1CCCCC1)NCC(=O)O)[C@@H](Cc1ccccc1)C(=O)NCc1ccc(CN)cc1 [Example 30, ((R)-1-{[(S)-1-(4-Aminomethyl-benzylcarbamoyl)-2-phenyl-ethyl]-methyl-carbamoyl}-2-cyclohexyl-ethylamino)-acetic acid] |
| 9.6 µM | > 235 µM | 4.3 µM | – | CCOc1ccc(C[C@H](C(=O)N[C@@H](Cc2ccccc2)C(=O)NCc2ccc(CN)cc2)N(C)C(=O)CC)cc1 [Example 31, (S)-N-(4-Aminomethyl-benzyl)-2-[(R)-3-(4-ethoxy-phenyl)-2-(methyl-propionyl-amino)-propionylamino]-3-phenyl-propionamide] |
| > 10 µM | > 235 µM | 0.2 µM | – | CCOc1ccc(C[C@@H](NC(=O)CC)C(=O)N(C)[C@@H](Cc2ccccc2)C(=O)NCc2ccc(CN)c(F)c2)cc1 [Example 32, (S)-N-(4-Aminomethyl-3-fluoro-benzyl)-2-{[(R)-3-(4-ethoxy-phenyl)-2-propionylamino-propionyl]-methyl-amino}-3-phenyl-propionamide] |
| > 10 µM | > 235 µM | 1.1 µM | – | CN[C@H](CC1CCCCC1)C(=O)N[C@@H](Cc1ccccc1)C(=O)NCc1ccc(CN)cc1 [Example 33, (R)-N-[(S)-1-(4-Aminomethyl-benzylcarbamoyl)-2-phenyl-ethyl]-3-cyclohexyl-2-methylamino-propionamide] |
| – | – | 10 µM | 36 µM (≈ 23.6 µg/mL) | CCOc1ccc(C[C@@H](NC(=O)c2ccc(-c3ccccc3)cc2)C(=O)N[C@@H](Cc2ccccc2)C(=O)NCc2ccc(CN)cc2)cc1 [Example 57, Biphenyl-4-carboxylic acid [(R)-1-[(S)-1-(4-aminomethyl-benzylcarbamoyl)-2-phenyl-ethylcarbamoyl]-2-(4-ethoxy-phenyl)-ethyl]-amide] |
| – | > 235 µM | 0.22 µM | – | CCOc1ccc(C[C@@H](N)C(=O)N[C@H](C(=O)NCc2ccc(CN)cc2)[C@@H](O)c2ccccc2)cc1 [Example 61, (R)-2-Amino-N-[(1S,2S)-1-(4-aminomethyl-benzylcarbamoyl)-2-hydroxy-2-phenyl-ethyl]-3-(4-ethoxy-phenyl)-propionamide] |
| – | > 235 µM | 0.052 µM | – | CCOc1ccc(C[C@@H](NC(=O)CC)C(=O)N[C@H](C(=O)NCc2ccc(CN)cc2)[C@@H](O)c2ccccc2)cc1 [Example 63, (2S,3S)-N-(4-Aminomethyl-benzyl)-2-[(R)-3-(4-ethoxy-phenyl)-2-propionylamino-propionylamino]-3-hydroxy-3-phenyl-propionamide] |
| – | > 235 µM | 3.4 µM | – | CCOc1ccc(C[C@@H](NC(=O)CC)C(=O)N(CC)[C@H](Cc2ccccc2)C(=O)NCc2ccc(CN)cc2)cc1 [Example 64, (R)-N-(4-Aminomethyl-benzyl)-2-{[(R)-3-(4-ethoxy-phenyl)-2-propionylamino-propionyl]-ethyl-amino}-3-phenyl-propionamide] |

From US9234000B2, “Benzylamine derivatives as inhibitors of plasma kallikrein” (KalVista Pharmaceuticals Limited, priority 2011, dated 2016)
